Experimental data: PubChem BioAssay AID2005 (Sanford-Burnham Center for Chemical Genomics, 2009)
Activity calls are given as the source filed them.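 The calls were made as follows: active = plate Z score at or below -3, or inhibition of at least 30% at 20 µM; inactive = the rest.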

Assay: EGFP reporter destabilization counter-screen – F442A EGFP cells, fluorescence, counter-screen for p/CIP destabilizer project, dose response (AID 2005);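 also: cells express EGFP alone from a CMV promoter as a counter screen for p/CIP-EGFP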
Conditions: F442A EGFP cells, EGFP fluorescence, 16 h, stronger effect = higher value

Row | Structure (SMILES) | inhibition (EGFP decrease, at 10 µM) | inhibition (at 20 µM)
1 | CC1(C)OC(=O)C(=CNC(CCC(N)=O)C(=O)O)C(=O)O1 (stereo unspecified) | -1.3% | 15.1% (inactive)
2 | O=C(NCCSc1ccccn1)c1ccc(Cl)cc1Cl | 19.7% | 3.4% (inactive)
3 | CCOC(=O)c1oc2ccccc2c1N | 12.3% | 19.4% (inactive)
4 | O=c1c(Br)c(Br)cnn1-c1ccccc1 | 14.6% | 29.7% (inactive)
5 | O=C(Nc1nc2nc(-c3ccccc3)cc(-c3ccccc3)n2n1)c1ccco1 | 4.8% | 5.5% (inactive)
6 | C=CCn1c(SCCN2C(=O)c3ccccc3C2=O)nc2scc(-c3ccccc3)c2c1=O | 30.3% | 0.6% (inactive)
7 | Cc1cc(C)cc(N2C(=O)N(c3ccccc3C)C3CS(=O)(=O)CC32)c1 (stereo unspecified) | 9.1% | 28.7% (inactive)
8 | C[C@@H](CN1C2=NC[C@H](Cc3ccc(O)cc3)N2C[C@H]1Cc1ccc(O)cc1)NC(=O)CCC1CCCCC1 | 19.4% | 28.8% (inactive)
9 | COC(=O)c1cccc(C23CC4(C2)[C@H](CN(C)[C@@H]4c2ccccc2)C3c2ccc(C(F)(F)F)cc2)c1 (stereo partly specified) | 8% | 8.1% (inactive)
10 | COc1ccc([N+](=O)[O-])cc1NC(=O)c1cccs1 | 18.4% | 8.7% (inactive)
11 | COc1cccc(NC(=O)N2CCC(NC(=O)C3CCCCC3)CC2)c1 | 13.5% | 8% (inactive)
12 | CC(=O)N1c2c(cc(Br)cc2S(=O)(=O)NCc2ccccc2)CC1C (stereo unspecified) | 26.4% | 20.8% (inactive)
13 | COc1ccc(CCNC(=O)c2ccncc2)cc1OC | -3.3% | 20.8% (inactive)
14 | Cc1ccc(NC2=NC3(CCCCC3)N=C(N)N2)c(C)c1 | 32.9% | 41.8%
15 | CCN1CCN(Cc2ccc(NC(=O)c3cc(NC(=O)C4=NN(c5ccccc5)C(=O)C4)cc(OC)c3)cc2C(F)(F)F)CC1 | 37.6% | 24.2% (inactive)
16 | COc1cc2c(cc1OC)/C(=C/C#N)NC(C)(C)C2 | 6.8% | 8% (inactive)
17 | CCNS(=O)(=O)c1ccc(OC)c(C(=O)NC2CCCCC2)c1 | 1.8% | 27.8% (inactive)
18 | Cc1ccc(-c2nc(-c3cccnc3)no2)c(C)c1 | 18.1% | 31.1%
19 | COc1cccc(/C=N/n2c(C3CCCCC3)n[nH]c2=S)c1O | 1.4% | 27.7% (inactive)

Row | Structure (SMILES) | inhibition (EGFP decrease, at 10 µM) | inhibition (at 20 µM)
20 | COC(=O)[C@@H](Cc1c[nH]c2ccccc12)NC(=O)C1CCCN(S(=O)(=O)c2ccc(C)cc2)C1 (stereo partly specified) | -7.3% | 19.7% (inactive)
21 | CCC1=C(OC(=O)N(CC)CC)N2C(=O)OC(=NCC(=O)OC)[C@]2(Cc2ccccc2)[C@H]2C1=CC[C@H]1C(=O)N(c3ccccc3)C(=O)[C@H]12 | 8.2% | 2% (inactive)
22 | Cc1ccccc1CC(=O)Nc1sc(C(C)C)cc1C(=O)N1CCOCC1 | 4.2% | 14.3% (inactive)
23 | O=C(Cn1c(=O)[nH]c2ccccc2c1=O)N1CCN(c2cccc(Cl)c2)CC1 | 17.8% | 20.5% (inactive)
24 | O=C(O)C1=C[C@H](c2cccs2)C[C@H](OCc2ccc(CO)cc2)O1 | 3.6% | -7.3% (inactive)
25 | Cc1cc(C)nc(Sc2ccc3nnc(C(F)(F)C(F)(F)C(F)(F)F)n3n2)n1 | 40.7% | 15.9% (inactive)
26 | CCn1cnc2cc(NCc3cccc(OC)c3O)ccc21 | 16.7% | 10.7% (inactive)
27 | CC(C(=O)N1c2ccccc2CCc2ccccc21)n1nnc(-c2ccc(N(C)C)cc2)n1 (stereo unspecified) | 15.2% | 6.8% (inactive)
28 | CC(=O)Nc1cn(C(C)=O)c(C)n1 | 5.9% | 33.7%
29 | CCn1c(SCC(=O)Nc2nc3ccc(C)cc3s2)nc2c(c1=O)SC(C)C2 (stereo unspecified) | 36.6% | 44.7%
30 | O=C(NC(=S)NCCc1ccccc1)c1ccco1 | 9.7% | -5.7% (inactive)
31 | CS(=O)(=O)N(CC(=O)N1CCN(Cc2ccc3c(c2)OCO3)CC1)c1ccc2c(c1)OCO2 | 15.1% | -15.1% (inactive)
32 | CCCCS(=O)(=O)Nc1ccc2c(c1)ncn2C1CCCCC1 | 27.7% | 13.8% (inactive)
33 | CCOC(=O)C1CCN(C(=O)c2cc(OCC)c(OCC)c(OCC)c2)CC1 | 10.4% | 24.3% (inactive)
34 | COc1cc(NC(=O)c2ccccc2[N+](=O)[O-])c(C(=O)O)cc1OC | 9.2% | -1.6% (inactive)
35 | COc1cccc2cc(C(C)=O)c(=O)oc12 | 33.2% | 24.2% (inactive)
36 | CCN1CCN(Cc2ccc(NC(=O)c3cc(NC(=O)c4cncc(-c5ccc(C#N)cc5)c4)cc(OC)c3)cc2C(F)(F)F)CC1 | 3% | 11.7% (inactive)
37 | COC(=O)COc1ccc(Oc2nc(SC)nc(N(C)C)n2)nn1 | 34.2% | 29.7% (inactive)
38 | Cc1ccccc1-n1ncc2c1CC(C)(C)CC2NC(=O)CCN1CCCCC1=O (stereo unspecified) | -9.2% | 12.3% (inactive)
